The source of these data is patent publication US12043602B2, “Fendiline derivatives” (The Board of Regents of the University of Texas System, priority 2019, dated 2024).

For data set [1], the target named is T1, mGFP-K-RASG12V (Homo sapiens (Human), UniProt P01116, G12V). The data set can be described thus: K-Ras mislocalization assay (confocal microscopy, Manders coefficient). The class given is cell-based. The arrangement: key to Emax: Manders coefficient: fraction of mCherry-CAAX co-localizing with GFP-K-Ras. As to conditions: MDCK cells; for IC50: 48 h treatment, read-out: IC50 (μM), KRASG12V mislocalization; for Emax: maximal effect, Manders coefficient. The procedure, abridged:
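Readout is the Manders coefficient: share of mCherry-CAAX overlapping mGFP-K-RASG12V in confocal images, proportional to K-Ras mislocalization. Stable MDCK co-expressing lines were exposed 48 h to various drug concentrations or 0.1% DMSO vehicle, then paraformaldehyde-fixed.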

Data set [2] has as its system MDCK cells co-expressing GFP-K-RASG12V and mCherry-CAAX.
Data set [3] has as its target HRAS (Homo sapiens (Human), UniProt P01112). As to conditions: background statement; cited from earlier work.
Data set [4] deals with NRAS (Homo sapiens (Human), UniProt P01111). The conditions noted are these: background statement; cited from earlier work.
The subject of data set [5] is BxPC-3 (WT) pancreatic tumor cells. As to the kind of experiment: CyQUANT proliferation assay. The class given is cell-based. The arrangement: key to IC50 proliferation BxPC-3 (WT): NE—Not efficacious. The method, then:
(§1) Madine Darby Canine Kidney epithelial cells (MDCK) stably co-expressing mGFP-tagged full length oncogenic mutant K-Ras (GFP—K-RASG12V) or mGFP-LactC2 (peptide probe for phosphatidylserine) and mCherry-tagged to the amino acids 179-189 of H-RasC181S, C184S (mCherry-CAAX, localizes primarily to endomembranes) were grown in DMEM-high glucose/sodium pyruvate/10% FBS. The medium was supplemented with 1× Penicillin/Streptomycin for fluorescence microscopy assays, to avoid any microbial contamination from the test compounds added. KLE and Hec50 cells were maintained in DMEM-F-12 medium supplemented with 10% FBS. Hec-1A and Hec-1B cells were grown in McCoy's 5a medium supplemented with 10% FBS. ESS-1 cells were grown in RPMI 1640 medium supplemented with 20% FBS. MPanc96 cells were grown in DMEM supplemented with 10% FBS, MiaPaCa-2 cells in DMEM supplemented with 10% FBS and 2.5% horse serum and all other cell lines were grown in RPMI 1640 supplemented with 10% FBS. All cancer cell media were supplemented with ×Penicillin/Streptomycin. All cell lines were grown at 37° C. with 5% CO2.
(§2) Cells were seeded in 96-well plates. After 24 h, fresh growth medium supplemented with 0.1% vehicle (DMSO), or various concentrations of drugs was added and cells were grown for 72 h. Cell numbers were quantified using the CyQUANT® Cell Proliferation Assay Kit (Molecular Probes, Life Technologies), according to the manufacturer's protocol. Fluorescence measurement was used as a measure of live cell number.

Data set [6] relates to MiaPaCa-2 (Mut) pancreatic tumor cells. The data set can be described thus: CyQUANT proliferation assay. The conditions noted are these: Table 11, pancreatic; read-out: IC50 (μM) MiaPaCa-2 (Mut). In kind it is cell-based. On the procedure:
as §1, §2

Data set [7] relates to MOH (Mut) pancreatic tumor cells. The data set can be described thus: CyQUANT proliferation assay. The class given is cell-based. The arrangement: key to IC50 proliferation MOH (Mut): NE—Not efficacious. On the procedure:
as §1, §2

Data set [8] relates to MPanc96 (Mut) pancreatic tumor cells. As to the kind of experiment: CyQUANT proliferation assay. The class given is cell-based. The conditions noted are these: Table 11, pancreatic; read-out: IC50 (μM) MPanc96 (Mut). The method, then:
as §1, §2

Data set [9] relates to NCI H1975 (WT) lung tumor cells. As to the kind of experiment: CyQUANT proliferation assay. The class given is cell-based. The conditions noted are these: Table 11, lung. On the procedure: as §1, §2
Data set [10] deals with NCI H522 (WT) lung tumor cells. As to the kind of experiment: CyQUANT proliferation assay. The class given is cell-based. The arrangement: key to IC50 proliferation NCI H522 (WT): NE—Not efficacious. The method, then: as §1, §2
The test system of data set [11] is CaCO-2 (WT) colon tumor cells. The data set can be described thus: CyQUANT proliferation assay. The class given is cell-based. The conditions noted are these: Table 11, colon; read-out: IC50 (μM) Caco-2 (WT). The method, then:
as §1, §2

Data set [12] concerns Hec1A (Mut) endometrial tumor cells. As to the kind of experiment: CyQUANT proliferation assay. The class given is cell-based. As to conditions: Table 11, endometrial; read-out: IC50 (μM) Hec1A (Mut). The method, then:
as §1, §2

The subject of data set [13] is Hec1B (Mut) endometrial tumor cells. As to the kind of experiment: CyQUANT proliferation assay. The class given is cell-based. The conditions noted are these: Table 11, endometrial; read-out: IC50 (μM) Hec1B (Mut). On the procedure: as §1, §2
The test system of data set [14] is NCI-H1299 (WT) lung tumor cells. The data set can be described thus: CyQUANT proliferation assay. In kind it is cell-based. The conditions noted are these: Table 11, lung; read-out: IC50 (μM) NCI H1299 (WT). The method, then: as §1, §2
The subject of data set [15] is SK-CO-1 (Mut) colon tumor cells. As to the kind of experiment: CyQUANT proliferation assay. The class given is cell-based. The conditions noted are these: Table 11, colon; read-out: IC50 (μM) SK-CO-1 (Mut). The method, then:
as §1, §2

Data set [16] deals with NCI-H23 (Mut) lung tumor cells. As to the kind of experiment: CyQUANT proliferation assay. The class given is cell-based. The arrangement: key to IC50 proliferation NCI-H23 (Mut): NE—Not efficacious. The method, then: as §1, §2
The subject of data set [17] is Ishikawa (WT) endometrial tumor cells. As to the kind of experiment: CyQUANT proliferation assay. In kind it is cell-based. The arrangement: key to IC50 proliferation Ishikawa (WT): NE—Not efficacious. On the procedure: as §1, §2
In data set [18] the target is T1, mGFP-K-RASG12V. As to conditions: versus compound 6; background statement; cited from earlier work.
Data set [19] concerns mutant KRAS expressing cancer cells. The conditions noted are these: at 30 μM; background statement; cited from earlier work.
The subject of data set [20] is MDCK cells co-expressing GFP-K-RASG12V and mCherry-CAAX. The data set can be described thus: Cytotoxicity in mislocalization screen (death of all cells in well). The conditions noted are these: drug caused death of all cells in well at 30 μM.
Data set [21] has as its system HPAC (Mut) pancreatic tumor cells. As to the kind of experiment: CyQUANT proliferation assay. In kind it is cell-based. Details: key to IC50 proliferation HPAC (Mut): NE—Not efficacious. The conditions noted are these: 72 h. On the procedure: as §1, §2
In data set [22] the test system is H1925 (WT) lung tumor cells. As to the kind of experiment: CyQUANT proliferation assay. The class given is cell-based. The arrangement: key: NE—Not efficacious. The conditions noted are these: 72 h. On the procedure: as §1, §2
Data set [23] deals with KLE (WT) endometrial tumor cells. As to the kind of experiment: CyQUANT proliferation assay. The class given is cell-based. The arrangement: key: NE—Not efficacious. As to conditions: 72 h. The method, then:
as §1, §2

Data set [24] has as its system SW1116 (Mut) colon tumor cells. As to the kind of experiment: CyQUANT proliferation assay. The conditions noted are these: 72 h. The class given is cell-based. The arrangement: key: NE—Not efficacious. The method, then: as §1, §2

Molecules are shown by their SMILES. Where two headings read alike, the source gives them in different places.

In general, IC50 refers to the midpoint of a concentration-inhibition curve. One may read the EC50 as the concentration giving half of the maximal effect.

In the case of `C[C@@H](NCCC(c1ccccc1)c1ccccc1)c1ccccc1` [AVA08, R-Fendiline, reference compound], the IC50 in data set [1] was determined as 5.59 µM. In addition, the Emax in data set [1] (48 h) was 0.811. Besides, in data set [2], the “Cytotoxic at 30 μM” value is “Yes”. Moreover, the “effect on the PM localization of HRAS” value in data set [3] is reported as “no effect”. Also, in data set [4], the “effect on the PM localization of NRAS” value is on record as “no effect”.
In the case of `COc1ccc([C@@H](C)N(CC=C(c2ccccc2)c2ccccc2)CC=C(c2ccccc2)c2ccccc2)cc1` [Compound 7, reference compound], the half-inhibitory concentration (IC50) in data set [1] was 0.5 µM; in data set [5] (Table 11, pancreatic, read-out: IC50 (μM) BxPC-3 (WT)), > 30 µM; in data set [6], > 30 µM; in [7] (Table 11, pancreatic, read-out: IC50 (μM) MOH (Mut)) it was > 30 µM; in [8], > 30 µM; in [9] it was > 30 µM. The half-maximal inhibitory concentration (IC50) in data set [10] (Table 11, lung, read-out: IC50 (μM) NCI H522 (WT)) is > 30 µM; in [11], > 30 µM; in [12] it was > 30 µM; in data set [13], > 30 µM; in [14], > 30 µM; in [15], > 30 µM. In addition, the 50% inhibitory concentration (IC50) was > 30 µM in data set [16] (Table 11, lung, read-out: IC50 (μM) NCI H23 (Mut)) and > 30 µM in data set [17] (Table 11, endometrial, read-out: IC50 (μM) Ishikawa (WT)). The Emax in data set [1] (48 h) stood at 0.74 ± 0.03. Also, the fold increased potency in data set [18] is 10 fold. Moreover, the “capability to kill mutant KRAS expressing cancer cells” value in data set [19] is “no capability to kill”. The “Cytotoxic at 30 μM” value in data set [20] is “did not show any cytotoxic and No”.
As for `CN1CCN(CCN(CC=C(c2ccccc2)c2ccccc2)[C@@H]2C[C@H]2c2ccccc2)CC1` [NY0590, (1R,2S)-N-(3,3-diphenylallyl)-N-(2-(4-methylpiperazin-1-yl)ethyl)-2-phenylcyclopropan-1-amine], the concentration giving a half-maximal response (EC50) in [1] (batch 4 compounds, 48 h, title calls it IC50, read-out: EC50) came to 0.945 µM. In [1] (48 h), this compound returned an Emax of 0.893. Further, in data set [5] (72 h), the “IC50 proliferation BxPC-3 (WT)” value is listed as “NE”. In addition, in data set [7] (72 h), the “IC50 proliferation MOH (Mut)” value is “NE”. In addition, in [21], the “IC50 proliferation HPAC (Mut)” value was “NE”. For the same compound, the “IC50 proliferation NCI H522 (WT)” value in data set [10] (72 h) was “NE”. Also, the “IC50 proliferation NCI-H23 (Mut)” value in data set [16] (72 h) is “NE”. Moreover, the “Potency proliferation H1925 (WT)” value in data set [22] was “NE”. Moreover, the “IC50 proliferation KLE (WT)” value in data set [23] is “NE”. In addition, in data set [24], the “Potency proliferation SW1116 (Mut)” value was “NE”. Moreover, the “IC50 proliferation Ishikawa (WT)” value in [17] (72 h) is reported as “NE”. Moreover, the “Cytotoxic at 30 μM” value in [20] is “Yes”.
